Results reported in US20040121965A1, “Method of treating resistant tumors” (Wyeth Holdings Corporation, priority 2002, published 2004).
Where two headings read alike, the source gives them in different places.

Legend:
KB-8-5 (MDR1+) = assay: Cell survival assay (SRB), KB-8-5 (MDR1+); conditions: for IC50: Homo sapiens, MDR1, read-out: In vitro IC50 (nM) KB85
KB-V1 (MDR1++) = assay: Cell survival assay (SRB), KB-V1 (MDR1++); conditions: for IC50: Homo sapiens
KB-3-1 = assay: Cell survival assay (SRB), KB-3-1; format: cell-based, human; conditions: Homo sapiens, KB 3-1, KB-3-1 cells (paclitaxel-sensitive parent); read-out: In vitro IC50 (nM) KB-3-1
In short: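 Cells were exposed to serially diluted compound in duplicate for 3 days. Survival was read as protein content by SRB (TCA fixation 1 hr at 4 °C, 0.04% SRB stain, dissolved in 10 mM Tris, absorbance). KB-3-1 was grown in 20% FCS. IC50 is the concentration giving 50% growth inhibition.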

[1] = read-out: In vitro IC50 (nM) KBV1

| SMILES | Ratio KB85/KB (KB-8-5 (MDR1+)) | IC50 (KB-8-5 (MDR1+)) [nM] | Ratio KBV1/KB (KB-V1 (MDR1++)) | IC50 (KB-V1 (MDR1++); [1]) [nM] | IC50 (KB-3-1) [nM] | IC50 (KB-V1 (MDR1++); read-out: In vitro IC50 KBV1) [nM] |
| --- | --- | --- | --- | --- | --- | --- |
| CCOC(=O)/C(C)=C/[C@H](C(C)C)N(C)C(=O)[C@@H](NC(=O)[C@@H](NC)C(C)(C)c1ccc(OC)cc1OC)C(C)(C)C [Example 58, 2-Methoxy-N,O,β,β,tetramethyl-L-tyrosyl-N^1-[(1S,2E)-4-ethoxy-1-isopropyl-3-methyl-4-oxo-2-butenyl]-N^1,3-dimethyl-L-valinamide] | 11.7 | 1700 | 20.8 | ≥ 3000 | 144 | – |
| CN[C@@H](C(=O)N[C@H](C(=O)N(C)[C@H](/C=C(\C)C(=O)O)C(C)C)C(C)(C)C)C(C)(C)c1ccc(C)c(C)c1 [Example 15, N,β,β,3,4-Pentamethyl-D-phenylalanyl-N^1-[(1S,2E)-3-carboxy-1-isopropyl-2-butenyl]-N^1,3-dimethyl-L-valinamide] | 1.6 | 21.4 | 87.1 | 1200 | 13.8 | – |
| CN[C@@H](C(=O)N[C@H](C(=O)N(C)[C@H](/C=C(\C)C(=O)O)C(C)C)C(C)(C)C)C(C)(C)Cc1ccccc1 [Example 49, N,3-dimethyl-4-phenyl-D-valyl-N^1-[(1S,2E)-3-carboxy-1-isopropyl-2-butenyl]-N^1,3-dimethyl-L-valinamide] | 2.8 | 55 | 99.8 | 2000 | 20 | – |
| CN[C@H](C(=O)N[C@H](C(=O)N(C)[C@H](/C=C(\C)C(=O)O)C(C)C)C(C)(C)SCc1ccc(OC)cc1)C(C)(C)c1ccc(OC)cc1 [Example 83, N,O,β,β-tetramethyl-L-tyrosyl-N^1-[(1S,2E)-3-carboxy-1-isopropyl-2-butenyl]-3-[(4-methoxybenzyl)sulfanyl]-N^1-methyl-L-valinamide] | 2.8 | 43.7 | 132.2 | 2090 | 15.8 | – |
| CN[C@H](C(=O)N[C@H](C(=O)N[C@H](/C=C(\C)C(=O)O)CC(C)C)C(C)(C)C)C(C)(C)c1ccccc1.O=C(O)C(F)(F)F [Example 93, N,β,β-trimethyl-L-phenylalanyl-N^1-[(1S,2E)-3-carboxy-1-isobutylbut-2-enyl]-3-methyl-L-valinamide Trifluoroacetic Acid] | 4.0 | 339 | 35.2 | ≥ 3000 | 85.2 | – |
| CN[C@H](C(=O)N[C@H](C(=O)N(C)[C@H](/C=C(\C)C(=O)O)Cc1ccccc1)C(C)(C)C)C(C)(C)c1ccccc1 [Example 136, (E,4S)-4-[((2S)-3,3-dimethyl-2-{[(2S)-3-methyl-2-(methylamino)-3-phenylbutanoyl]amino}butanoyl)(methyl)amino]-2-methyl-5-phenyl-2-pentenoic Acid] | 2.8 | 1320 | 6.3 | ≥ 3000 | 479 | – |
| CNC(C(=O)N[C@H](C(=O)N(C)[C@@H](/C=C(\C)C(=O)O)C(C)C)C(C)(C)C)C1(c2ccccc2)CCCCC1 (stereo partly drawn) [Example 73, (2E,4R)-2,5-dimethyl4-(methyl{3-methyl-N-[(methylamino)(1-phenylcyclohexyl)acetyl]-L-valyl}amino)-2-hexenoic Acid] | 1.8 | 363 | 14.7 | ≥ 3000 | 204 | – |
| CN[C@H](C(=O)N[C@@H](CCc1ccccc1)C(=O)N(C)[C@H](/C=C(\C)C(=O)O)C(C)C)C(C)(C)c1ccccc1 [Example 89, (E ,4S)-2,5-Dimethyl-4-[methyl((2S)-2-{[(2S)-3-methyl-2-(methylamino)-3-phenylbutanoyl]amino}4-phenylbutanoyl)amino]-2-hexenoic Acid] | 1.5 | 274 | 16.6 | ≥ 3000 | 180 | – |
| CN[C@@H](C(=O)N[C@H](C(=O)N(C)[C@H](/C=C(\C)C(=O)O)C(C)C)C(C)(C)C)C(C)(C)c1cccc(C(F)(F)F)c1 [Example 63, N,β,β-Trimethyl-3-(trifluoromethyl)-D-phenylalanyl-N^1-[(1S,2E)-3-carboxy-1-isopropyl-2-butenyl]-N^1,3-dimethyl-L-valinamide] | 2.4 | 45.7 | 69.0 | 1320 | 19.1 | – |
| CN[C@H](C(=O)N[C@H](C(=O)N(C)[C@H](/C=C(\C)C(=O)O)C(C)C)C(C)(C)C)C(C)(C)c1c[nH]c2ccccc12 [Example 141, N,β,β-trimethyl-L-tryptophyl-N^1-[(1S,2E)-3-carboxy-1-isopropyl-2-butenyl]-N^1,3-dimethyl-L-valinamide] | 2.4 | 1.65 | 139.4 | 96.9 | 0.695 | – |
| CCOC(=O)/C(C)=C/[C@H](C(C)C)N(C)C(=O)[C@@H](NC(=O)[C@@H](NC)C(C)(C)c1ccc(C(C)(C)C)cc1)C(C)(C)C [Example 29, 4-tert-Butyl-N,β,β-trimethylphenylalanyl-N^1-[(1S,2E)-4-ethoxy-1-isopropyl-3-methyl-4-oxo-2-butenyl]-N^1,3-dimethyl-L-valinamide] | 10.7 | 380 | 84.7 | ≥ 3000 | 35.4 | – |
| CN[C@H](C(=O)N[C@H](C(=O)N(C)[C@H](C[C@H](C)C(=O)O)C(C)C)C(C)(C)C)C(C)(C)c1ccccc1 [Example 123, N,β,β-trimethyl-L-phenylalanyl-N^1-[(1R,3S)-3-carboxy-1-isopropylbutyl]-N^1,3-dimethyl-L-valinamide] | 0.6 | 537 | – | – | 891 | > 3000 |
| CN[C@H](C(=O)N[C@H](C(=O)N(C)[C@H](/C=C(\C)C(=O)O)C(C)C)C(C)(C)SC)C(C)(C)c1ccc(OC)cc1 [Example 84, N,O,β,β-tetramethyl-L-tyrosyl-N^1-[(1S,2E)-3-carboxy-1-isopropyl-2-butenyl]-N^1-methyl-3-(methylsulfanyl)-L-valinamide] | 3.2 | 5.1 | 188.7 | 302 | 1.6 | – |
| CN[C@H](C(=O)N[C@H](C(=O)N(C)[C@H](/C=C(\C)C(=O)O)C(C)C)C(C)(C)C)C(C)(C)c1ccc(OC(C)C)cc1 [Example 68, O-isopropyl-N,β,β-trimethyl-L-tyrosyl-N^1-[(1S,2E)-3-carboxy-1-isopropylbut-2-enyl]-N^1,3-dimethyl-L-valinamide] | 2.9 | 4.3 | 47.2 | 70.8 | 1.5 | – |
| CN[C@@H](C(=O)N[C@H](C(=O)N(C)[C@H](/C=C(\C)C(=O)O)C(C)C)C(C)(C)C)C(C)(C)c1cc(C)cc(C)c1 [Example 18, N,β,β,3,5-Pentamethyl-D-phenylalanyl-N^1-[(1S,2E)-3-carboxy-1-isopropyl-2-butenyl]-N^1,3-dimethyl-L-valinamide] | 2.4 | 17.4 | 79.9 | 575 | 7.2 | – |
| CN[C@H](C(=O)N[C@H](C(=O)N(C)[C@H](/C=C(\C)C(=O)O)C(C)C)C(C)(C)C)C(C)(C)c1ccc(C)cc1 [Example 11, N,β,β,4-Tetramethyl-L-phenylalanyl-N^1-[(1S,2E)-3-carboxy-1-isopropyl-2-butenyl]-N^1,3-dimethyl-L-valinamide] | 1.7 | 2.6 | 36.7 | 55 | 1.5 | – |
| CN[C@H](C(=O)N[C@H](C(=O)N(C)[C@H](/C=C(\C)C(=O)O)C(C)C)C(C)(C)C)C(C)(C)SCc1ccc(OC)cc1 [Example 150, 3-[(4-methoxybenzyl)thio]-N-methyl-L-valyl-N^1-[(1S,2E)-3-carboxy-1-isopropylbut-2-enyl]-N^1,3-dimethyl-L-valinamide] | 2.1 | 11.3 | 36.5 | 190 | 5.2 | – |
| CNC(C(=O)NC(C(=O)N(C)C(C=C(C)C(=O)O)C(C)C)C(C)(C)C)C(C)c1ccccc1.O=C(O)C(F)(F)F (stereo not drawn) [Example 100, 4-{[3,3-Dimethyl-2-(2-methylamino-3-phenyl-butyrylamino)-butyryl]-methyl-amino}-2,5-dimethyl-hex-2-enoic Acid Trifluoroacetic Acid] | 1.7 | 197 | 26.2 | ≥ 3000 | 114 | – |
| CN[C@H](C(=O)N[C@H](C(=O)N(C)[C@H](/C=C(\C)C(=O)O)C(C)C)C(C)(C)C)C(C)(C)c1csc2ccccc12 [Example 26, 3-(1-Benzothien-3-yl)-N-methylvalyl-N^1-[(1S,2E)-3-carboxy-1-isopropyl-2-butenyl]-N^1,3-dimethyl-L-valinamide] | 2.0 | 9.1 | 92.6 | 417 | 4.5 | – |
| CCOC(=O)/C(C)=C/[C@H](C(C)C)N(C)C(=O)[C@@H](NC(=O)[C@@H](NC)C(C)(C)c1cccc(C)c1)C(C)(C)C [Example 7a, N,β,β,3-Tetramethyl-L-phenylalanyl-N^1-[(1S,2E)4-ethoxy-1-isopropyl-3-methyl-4-oxo-2-butenyl]-N^1,3-dimethyl-L-valinamide] | 24.0 | 525 | 110.0 | 2410 | 21.9 | – |
